Assay results from patent US11046720B2, “Dimethylphosphine oxide compound” (GUIZHOU INOCHINI TECHNOLOGY CO., LTD, priority 2018, dated 2021).
Where two headings read alike, the source gives them in different places.

How the values were obtained:
[1] = biological target: T1, LRRK2 full-length human recombinant protein (Homo sapiens, UniProt Q5S007); assay: In vitro evaluation of LRRK2 kinase inhibitory activity (HTRF / TR-FRET, LRRKtide); format: biochemical; settings: 57 μM ATP, 0.4 uM Fluorescein-ERM (LRRKtide) peptide
T1 construct: express LRRK2 full-length human recombinant protein in Sf9 cells of insects; GST; made in house; host or cells: Sf9 insect cells (baculovirus)
Procedure: Experimental purpose: to detect transfer of energy signals (ratio of fluorescence signals: […]) after the phosphate group of phosphorylated Fluorescein-ERM (LRRKtide) peptide binds with LanthaScreen® Tb-pERM (pLRRKtide) antibody using homogeneous time-resolved fluorescence. Calculate IC50 for LRRK2 inhibition of the compound to be assayed.
1. Reaction solution: 10 mM 4-(2-hydroxyethyl) piperazine-1-ethanesulfonic acid (pH 7.5); 2 mM magnesium chloride; 0.5 mM glycol-bis-(2-aminoethylether)-N; 0.002% primary alcohol ethoxylate, 1 mM dithiothreitol and 1% DMSO;
2. Assay solution: TR-FRET Dilution Buffer;
3. LRRK2 human recombinant protein: use GST tag and baculovirus to express LRRK2 full-length human recombinant protein in Sf9 cells of insects;
4. Substrate: 0.4 uM Fluorescein-ERM (LRRKtide) peptide; 57 uM ATR
Resonance energy transfer of Fluorescein-ERM (LRRKtide) peptide and LanthaScreen® Tb-pERM (pLRRKtide) antibody between […].
1. Add DMSO solution of the compound to be assayed through the Echo550 non-contact nano-liter acoustic droplet ejection system;
2. Prepare mixed solution of enzyme and polypeptide with freshly prepared reaction solution. Add the mixed solution to the reaction cavity and warm it up at room temperature for 20 minutes in advance;
3. Add 57 μM ATP to initiate reaction, which lasts for 90 minutes at room temperature;
4. Add fluorescein-ERM (LRRKtide) peptide, LanthaScreen® Tb-pERM (pLRRKtide) antibody and 10 mM ethylene diamine tetraacetic acid to the assay system. The reaction lasts for 60 minutes at room temperature. Detect yellow light signals with Em/Ex 520/485.
5. Measure enzyme activity inhibition relative to DMSO blank control group according to the signal ratio, and calculate IC50 by fitting curves with the software XLfit5.

[2] = Pharmacokinetic evaluation in C57BL/6 mice, brain tissues and plasma; format: in vivo; settings: oral, 5 mg/kg; for Kp / AUC(0-t) / Tmax / Cmax / half-life: male, C57BL/6, mouse; for Kp: brain/plasma, read-out: drug concentration ratio between brain tissues and plasma (B/P)
Procedure: Experimental purpose: to study pharmacokinetics of the compounds in vivo in C57BL/6 mice—drug concentration ratio between brain tissues and plasma
Experimental materials: C57BL/6 mice (male, 8 weeks old, weight: 25 g-30 g)
Assay Pharmacokinetic Features of Glires after they are Orally Administered the Compounds According to Standard Schemes.
In the experiment, the candidate compounds are prepared into 1 mg/mL mixed suspension, and mice are orally administered once. The menstruum for oral administration is 10% dimethyl sulfoxide (DMSO)/10% polysorbate/20% PEG-400 aqueous solution. This project uses male C57BL/6 mice, which are orally administered drugs at a dose of 5 mg/kg. Collect the whole brain 0.5, 1, 2 and 4 hours after the administration. Homogenize tissue samples with 15 mM [[…] (pH=7.4) buffer and methanol (volume ratio: 2:1)] at a ratio of 1:5 (w:v). Equally divide the homogenate into 2 samples: one for assay and the other for standby use. Besides, collect plasma 0.5, 1, 2 and 4 hours after administration. Centrifugate with 3,000 g relative centrifugal force within half an hour after collection at about 4° C. for 15 minutes to separate supernatant and obtain plasma samples. Store the plasma samples in polypropylene tubes; rapidly freeze them on dry ice and keep them at −80° C. till LC/MS/MS assay. Add internal standard precipitated protein of acetonitrile solution and fully mix them to extract supernatant samples via centrifugation. Quantitatively analyze plasma concentration by LC-MS/MS assay and calculate pharmacokinetic parameters such as maximal concentration (Cmax), half-life (T1/2), maximal time (Tmax), drug concentration in different tissues after administration (AUC0-last), and drug concentration ratio between brain tissues and plasma (B/P).

[3] = biological target: T2, LRRK2 (pSer935) (Homo sapiens, UniProt Q5S007); assay: In vitro evaluation of inhibitory activity for LRRK2 cell (pSer935), 293T cells transfected with pcmv-flag-lrrk2, MSD; format: cell-based
T2 construct: expressed in transfected cells; host or cells: 293T cells
Procedure: Take 293T cells out of liquid nitrogen and put them in water at 37° C. After ice has fully thawed, transfer the cells to 5 mL warm culture medium. Discard the supernatant through centrifugation, and culture the suspended cells in the culture medium as new cells.
Culture the 293T cells in the culture medium for two to three days.
Plant 1.4×10^6/293T cells on a culture plate. After two days of culturing, cells will multiply to 5×10^6, so planting cells on N+1 plates is enough for performing experiments on N 96-well plates.
1) Add 5 μl (0.5 μg/μl) pcmv-flag-Irrk2 to 145 μl DMEM culture medium, and mix them evenly with a straw;
6) Incubate the culture plate inside a humidified incubator with 5% carbon dioxide for 20 to 24 hours at 37° C.
3. (Day 3) Plant the 293T Cells on the 96-Well Plate;
3) Transfer 50 μl inhibitor containing culture medium to the cell culture plate;
4) Incubate the culture plate inside a humidified incubator with 5% carbon dioxide for 20 to 24 hours at 37° C.;
5) Extract 300 μl inhibitor containing culture medium with a dropper. Take 200 μl inhibitor containing culture medium and add 100 μl decomposer into the culture medium. After the plate has been sealed, it shall be shaken for 30 minutes at 4° C.
1) Add 2 μg/25 μl labeled antibody to the MSD plate to incubate for 2 hours; (50 μl 3.9 μg/μl Flag antibody+2.5 ml fetal bovine serum per plate). Maintain centrifugation for 10 s (1,000 rpm);
5) Transfer 12.5 μl lysis buffer and 12.5 μl cell lysis buffer to the MSD plate to incubate for 1 hour at room temperature;
7) Dilute ps935 antibody at 1:200, and add 25 μl antibody to incubate for 1 hour;
9) Dilute goat anti-rabbit antibody at 1:500, and add 25 μl antibody to the incubation plate to incubate for 1 hour;
13) After incubation for about 3 minutes, read data over 15 minutes.

[4] = brain tissues, read-out: AUC0-last Brain Tissues
[5] = brain tissues, read-out: Tmax Brain Tissues
[6] = plasma, read-out: AUC0-last Plasma
[7] = plasma, read-out: T1/2 Plasma (converted)
[8] = brain tissues, read-out: T1/2 Brain Tissues (converted)

T2 sequence (Q5S007 whole entry): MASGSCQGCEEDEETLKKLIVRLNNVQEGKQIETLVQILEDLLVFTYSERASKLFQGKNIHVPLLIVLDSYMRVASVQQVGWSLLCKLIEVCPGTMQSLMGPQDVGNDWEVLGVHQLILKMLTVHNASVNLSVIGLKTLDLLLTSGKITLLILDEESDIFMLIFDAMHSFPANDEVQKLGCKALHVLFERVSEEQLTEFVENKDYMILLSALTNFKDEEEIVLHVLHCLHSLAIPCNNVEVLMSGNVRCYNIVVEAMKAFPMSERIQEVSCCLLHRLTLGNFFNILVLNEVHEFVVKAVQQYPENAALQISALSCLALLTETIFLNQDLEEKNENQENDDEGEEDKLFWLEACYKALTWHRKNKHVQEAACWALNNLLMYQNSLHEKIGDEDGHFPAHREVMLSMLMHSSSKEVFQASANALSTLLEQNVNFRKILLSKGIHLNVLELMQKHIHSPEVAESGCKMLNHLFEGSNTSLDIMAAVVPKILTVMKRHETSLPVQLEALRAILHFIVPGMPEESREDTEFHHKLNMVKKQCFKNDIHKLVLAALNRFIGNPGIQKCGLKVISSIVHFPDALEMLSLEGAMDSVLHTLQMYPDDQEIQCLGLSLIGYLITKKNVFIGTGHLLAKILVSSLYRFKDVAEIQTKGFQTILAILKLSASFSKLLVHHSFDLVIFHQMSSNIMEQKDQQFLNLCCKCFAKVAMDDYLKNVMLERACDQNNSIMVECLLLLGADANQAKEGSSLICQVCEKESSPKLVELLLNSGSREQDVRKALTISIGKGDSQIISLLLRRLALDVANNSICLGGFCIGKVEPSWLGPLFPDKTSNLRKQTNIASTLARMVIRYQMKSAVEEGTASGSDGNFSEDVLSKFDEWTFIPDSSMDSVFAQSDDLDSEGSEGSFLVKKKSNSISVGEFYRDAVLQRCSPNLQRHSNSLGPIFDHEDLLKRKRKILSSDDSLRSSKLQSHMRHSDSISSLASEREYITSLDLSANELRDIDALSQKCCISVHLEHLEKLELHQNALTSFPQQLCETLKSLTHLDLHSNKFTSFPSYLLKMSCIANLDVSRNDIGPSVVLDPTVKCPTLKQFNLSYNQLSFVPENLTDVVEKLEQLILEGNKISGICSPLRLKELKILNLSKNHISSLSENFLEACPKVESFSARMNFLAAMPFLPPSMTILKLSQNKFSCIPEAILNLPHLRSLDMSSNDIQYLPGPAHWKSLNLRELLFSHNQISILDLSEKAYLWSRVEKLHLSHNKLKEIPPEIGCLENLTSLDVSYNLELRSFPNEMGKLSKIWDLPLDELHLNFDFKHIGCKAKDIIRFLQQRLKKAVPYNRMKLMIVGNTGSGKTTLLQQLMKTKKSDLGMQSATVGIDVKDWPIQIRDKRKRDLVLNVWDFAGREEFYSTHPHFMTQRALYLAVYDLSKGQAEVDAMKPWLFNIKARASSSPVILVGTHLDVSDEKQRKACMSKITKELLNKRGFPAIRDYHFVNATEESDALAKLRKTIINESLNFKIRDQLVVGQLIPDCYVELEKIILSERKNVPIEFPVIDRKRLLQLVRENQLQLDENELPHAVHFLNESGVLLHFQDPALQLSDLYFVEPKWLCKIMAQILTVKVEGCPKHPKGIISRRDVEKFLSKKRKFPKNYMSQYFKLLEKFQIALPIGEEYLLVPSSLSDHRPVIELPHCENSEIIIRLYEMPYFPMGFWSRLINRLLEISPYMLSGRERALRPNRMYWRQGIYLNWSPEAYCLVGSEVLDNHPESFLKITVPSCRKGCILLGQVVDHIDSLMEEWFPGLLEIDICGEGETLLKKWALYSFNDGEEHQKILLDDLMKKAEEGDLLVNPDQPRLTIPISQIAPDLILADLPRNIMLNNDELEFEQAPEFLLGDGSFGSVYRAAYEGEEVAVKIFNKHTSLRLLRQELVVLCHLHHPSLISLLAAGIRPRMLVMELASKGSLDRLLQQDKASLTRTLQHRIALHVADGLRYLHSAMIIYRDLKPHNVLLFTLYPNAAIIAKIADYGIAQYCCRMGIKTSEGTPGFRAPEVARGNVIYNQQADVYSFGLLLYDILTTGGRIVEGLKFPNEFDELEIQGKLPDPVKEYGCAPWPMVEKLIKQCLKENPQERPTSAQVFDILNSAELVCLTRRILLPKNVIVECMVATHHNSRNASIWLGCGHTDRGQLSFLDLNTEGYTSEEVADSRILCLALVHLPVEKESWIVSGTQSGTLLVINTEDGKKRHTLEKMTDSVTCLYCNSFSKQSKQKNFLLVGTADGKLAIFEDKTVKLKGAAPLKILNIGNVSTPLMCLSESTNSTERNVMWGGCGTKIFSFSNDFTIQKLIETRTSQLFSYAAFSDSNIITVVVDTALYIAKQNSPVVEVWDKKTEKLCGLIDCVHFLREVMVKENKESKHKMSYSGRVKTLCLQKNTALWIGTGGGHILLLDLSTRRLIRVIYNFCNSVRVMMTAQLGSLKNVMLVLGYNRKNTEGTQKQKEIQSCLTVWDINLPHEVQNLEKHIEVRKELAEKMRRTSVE
T1 sequence (Q5S007 whole entry): as above

With `COc1nc(N2CCC3(CCOC3)C2)ccc1Nc1ncc(Cl)c(Nc2ccccc2P(C)(C)=O)n1` (stereo not shown) [Embodiment 1] the IC50 [1] was 21 nM.

`COc1nc(N2CCC3(CCCOC3)C2)ccc1Nc1ncc(Cl)c(Nc2ccccc2P(C)(C)=O)n1` (stereo not shown) [Embodiment 2] showed an IC50 [1] of 24.4 nM.

For `COc1nc(N2CC3(CCOCC3)C2)ccc1Nc1ncc(Cl)c(Nc2ccccc2P(C)(C)=O)n1` [Embodiment 3], the IC50 [1] was 6.2 nM, the Kp [2] was 0.14 and the AUC(0-t) [2, 4] was 0.192 µM·h. The Tmax [2, 5] was 30 min, the Cmax ([2]; plasma) was 1180 nM and the AUC(0-t) [2, 6] was 1.39 µM·h. For the same compound, the half-life [2, 7] was 35.4 min, the Tmax ([2]; plasma, read-out: Tmax Plasma) was 30 min and the “Cmax Brain Tissues” value ([2]; brain tissues) was 217 nM. It also gave an IC50 [3] of 4.3 nM.

`COc1nc(N2CCC3(CCCCO3)C2)ccc1Nc1ncc(Cl)c(Nc2ccccc2P(C)(C)=O)n1` (stereo not shown) [Embodiment 4] gave an IC50 [1] of 34.2 nM.

`COc1nc(N2CCC3(CCCO3)C2)ccc1Nc1ncc(Cl)c(Nc2ccccc2P(C)(C)=O)n1` (stereo not shown) [Embodiment 5] showed an IC50 [1] of 8.2 nM and an IC50 [3] of 4 nM.

`COc1nc(N2CC3(CCCOC3)C2)ccc1Nc1ncc(Cl)c(Nc2ccccc2P(C)(C)=O)n1` [Embodiment 6] showed an IC50 [1] of 2.9 nM and an IC50 [3] of 3.3 nM.

`COc1nc(N2CC3(CCCCO3)C2)ccc1Nc1ncc(Cl)c(Nc2ccccc2P(C)(C)=O)n1` [Embodiment 7] showed an IC50 [1] of 8.5 nM and an IC50 [3] of 10.9 nM.

`COc1nc(N2CCC3(CCOCC3)CC2)ccc1Nc1ncc(Cl)c(Nc2ccccc2P(C)(C)=O)n1` [Embodiment 8] showed an IC50 [1] of 7.2 nM.

`COc1nc(N2CC3(CCOC3)C2)ccc1Nc1ncc(Cl)c(Nc2ccccc2P(C)(C)=O)n1` [Embodiment 9] gave an IC50 [1] of 7.8 nM, a Kp [2] of 0.2 and an AUC(0-t) [2, 4] of 0.489 µM·h. The half-life [2, 8] was 21.6 min, the Tmax [2, 5] was 30 min and the Cmax ([2]; plasma) was 2600 nM. For the same compound, the AUC(0-t) [2, 6] was 2.48 µM·h, the half-life [2, 7] was 33.6 min and the Tmax ([2]; plasma, read-out: Tmax Plasma) was 30 min. For the same compound, the “Cmax Brain Tissues” value ([2]; brain tissues) was 604 nM and the IC50 [3] was 4.7 nM.

In the case of `COc1nc(N2CCC3(CCOCC3)C2)ccc1Nc1ncc(Cl)c(Nc2ccccc2P(C)(C)=O)n1` [Embodiment 10], the IC50 [1] is reported as 21.6 nM.

In the case of `COc1nc(N2CC3(CC(OC)C3)C2)ccc1Nc1ncc(Cl)c(Nc2ccccc2P(C)(C)=O)n1` [Embodiment 11], the IC50 [1] is reported as 5.3 nM, the Kp [2] is reported as 0.41 and the AUC(0-t) [2, 4] is reported as 0.597 µM·h. It also gave a half-life [2, 8] of 22.2 min, a Tmax [2, 5] of 30 min and a Cmax ([2]; plasma) of 1560 nM. For the same compound, the AUC(0-t) [2, 6] was 1.45 µM·h, the half-life [2, 7] was 28.2 min and the Tmax ([2]; plasma, read-out: Tmax Plasma) was 30 min. For the same compound, the “Cmax Brain Tissues” value ([2]; brain tissues) was 698 nM and the IC50 [3] was 4.5 nM.
